# Data taken from patent publication US20190183922A1, “NOVEL ACTIVE IMMUNOMODULATORY AGENT AND COMPOSITION CONTAINING SAME” (UNIVERSITE CLERMONT AUVERGNE, priority 2016, published 2019).
# “And” between values parts separate entries of the source, which are not always exact repeats. Identical values can stand only once.
# System: co-culture of human dermal endothelial cells (HMVECs) and normal human dermal fibroblasts (NHDFs)
# Test: Formation of pseudotubes in an HMVEC+NHDF co-culture (anti-vWF immunolabelling, image analysis)
# Assay type: cell-based
# Method: The effects of the high-molecular-weight sulphated polysaccharide (HMWP) on the formation of pseudotubes was studied in a co-culture of human dermal endothelial cells (HMVECs) and normal human dermal fibroblasts (NHDFs), in basal condition or stimulated by VEGF (analysis by immunolabelling in situ).
# The HMVEC and NHDF cells in co-culture were seeded in 96-well plates and cultured for 24 hours in culture medium.
# The culture medium used is as follows: • EBM-2 (Endothelial cell basal medium 2) supplemented with 5% foetal calf serum (FCS), rhEGF, rhFGF, R3 IGF-1, hydrocortisone, vitamin C, gentamycin, • DMEM supplemented with 2 mM L-glutamine, 50 U/ml penicillin, 50 μg/ml streptomycin and 10% FCS.
# The medium was then replaced with test medium containing or not containing (control) the compound to be tested and/or the VEGF inductor reference tested at 100 ng/ml; the compound was tested simultaneously in basal and stimulated condition (in the absence and in the presence of VEGF).
# The test medium used was as follows: • EBM-2 (Endothelial cell basal medium 2) supplemented with rhEGF, rhFGF, R3 IGF-1, hydrocortisone, vitamin C, gentamycin, • DMEM supplemented with 2 mM L-glutamine, 50 U/ml penicillin, 50 μg/ml streptomycin and 1% FCS.
# The cells were then incubated for 7 days, repeating the treatment after incubating for 72 hours. All the experimental conditions were produced in triplicate (n=3).
# After incubation, the culture medium was removed and the cells were rinsed, fixed and permeabilized. The cells were then labelled with anti-VWF (Von Willebrand Factor) primary antibody. […] Simultaneously, the cell nuclei were coloured with Hoechst 33258 (bis-benzimide).
# The formation of the pseudotubes was observed using a NIKON Diaphot 300 microscope (×4 objective lens). The digital images (1 photo per well) were then recorded with a NIKON DS-Ri1 camera and the NIS-Elements 4.13.04 software.
# The labelling was quantified by measuring the entire surface of the pseudotubes using ImageJ software.
# The formation of pseudotubes in the co-culture of endothelial cells (HMVECs) and dermal fibroblasts (NHDFs) after incubating for 7 days was measured by image analysis following immunolabelling with an anti-vWF antibody, the vWF being specifically expressed by the HMVEC cells.
# The stimulation percentage is calculated according to the following formula: […]
# The inhibition percentage is calculated according to the following formula: […]
# [1] = VEGF inductor reference 100 ng/ml, 7 days
substance,measurement,setting,value
VEGF,% Control,[1],1759%
same,% Stimulation,[1],1659%
same,Surface of the pseudotubes,"VEGF inductor reference 100 ng/ml, 7 days, individual wells",2.15 mm^2 and 2.52 mm^2 and 1.84 mm^2
same,Average Surface,"VEGF inductor reference 100 ng/ml, 7 days, n=3",2.17 mm^2
same,Organization of the endothelial cells into pseudotubes,reference VEGF 100 ng/ml,clearly led to an organization of the endothelial cells into pseudotubes
